B1: BdcA E50Q variant (protein, UniProt P39333 1-237, looked up, variant E50Q)
Cyclic-di-GMP-binding biofilm …: MGAFTGKTVLILGGSRGIGAAIVRRFVTDGANVRFTYAGSKDAAKRLAQQTGATAVFTDSADRDAVIDVVRKSGALDILVVNAGIGVFGEALELNADDIDRLFKINIHAPYHASVEAARQMPEGGRILIIGSVNGDRMPVAGMAAYAASKSALQGMARGLARDFGPRGITINVVQPGPIDTDANPANGPMRDMLHSLMAIKRHGQPEEVAGMVAWLAGPEASFVTGAMHTIDGAFGA

Assays:
[1] = Rejection experiments with NF90 membranes (no biofilm); format: physicochemical; conditions: 1 mM and 10 mM feed in 5 mM NaCl (pH 9.0), 30 min
Description: Beneficial Biofilm Degrades Epichlorohydrin. Epichlorohydrin is an emerging water contaminant for which treatment techniques are not well studied. […] Measurements were taken 30 min after permeation began. Feed was in 5 mM NaCl (pH 9.0). Furthermore, when grown on the NF90 membrane, the beneficial biofilm that produces EH degraded epichlorohydrin by more than 39±4% in single pass batch filtration (See FIGS. 29 and 30). […] Biofilms grown for 24 h on NF90 membranes were challenged with 10 mM epichlorohydrin in 5 mM NaCl feed solution (pH 9). The left and adjacent right bars indicate the molar removal of epichlorohydrin (%) at 20 min and 30 min respectively, after starting filtration. The removal of epichlorohydrin by adsorption to cellular biomass was estimated using a dead cell control experiment. EH− is E. coli TG1/pBdcAE50Q-lasI-lasR/pBNos and EH+ is E. coli TG1/pBdcAE50Q-lasI-lasR/pBNos-echA. Dead cells were obtained by autoclaving overnight cultures of the EH+ strain. The error bars are standard deviation for three independent colonies.

[2] = tested on: biofilm dispersal; conditions: cited from earlier work

Molecule | passage through NF90 membrane [1] | higher levels of biofilm dispersal [2]
ClCC1CO1 (centres unmarked) [Epichlorohydrin] | passes through the membrane used | –
B1 | – | six-fold higher
